This is an account of results in US20250230138A1, “COMPOUNDS HAVING A T-STRUCTURE FORMED BY AT LEAST FOUR CYCLES FOR USE IN THE TREATMENT OF CANCER AND OTHER INDICATIONS” (TheRas, Inc., priority 2022, published 2025).

Like-named read-outs stand apart in the source and are kept apart here.

Assay [1] addresses Cys242 in human PIK3CA (157-299) (Homo sapiens (Human), UniProt P42336). In words: Covalent modification assay using MALDI-TOF MS. The assay is classed as biochemical. The following applies: 4 h reaction time point; 3.33 μM protein target, 1:7.5 protein to compound ratio (compounds 1-852). Put shortly: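 PIK3CA (157-299) at 3.33 μM or 1 μM in 20 mM HEPES, 150 mM NaCl, 2 mM MgCl2, pH 7.3 was incubated with compound (from 10 mM DMSO stocks) in the dark at room temperature for 15 min, 30 min, 2 h or 4 h. Linear-mode MALDI-TOF peak heights gave percent modification.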

Assay [2] concerns the target KRAS-PI3Kα interaction (KRAS-Q25A binding to avi-tagged full length PI3Kα) (Homo sapiens (Human), UniProt P42336). The assay is described as follows: Disrupting KRAS-PI3Kα interaction by SPR inhibition assay. The following applies: KRAS-Q25A at 20 μM, 25° C. As for the experimental part:
SPR binding experiments were collected on a Biacore 8K Instrument (Cytiva). Neutravidin (Pierce) was amine coupled to the carboxymethylated dextran surface of a CM5 sensor chip (Cytiva) using standard amine coupling chemistry. The CM5 chip surface was first activated with 0.1 M N-hydroxy succinimide and 0.4 M N-ethyl-N′-(3-dimethyl aminopropyl) carbodiimide at a flow rate of 20 μL/min using 20 mM HEPES pH 7.4, 150 mM NaCl as the running buffer. Next, neutravidin was diluted to 20 μg/mL in 10 mM sodium acetate (pH 4.5) and injected on all flow cells until a density of approximately 10,000 response units (RU) was immobilized. Activated amine groups were quenched with an injection of 1 M ethanolamine (pH 8.0). 300-500 RU of avi-tagged full length PI3Kα was captured on all flow cells in 20 mM HEPES pH 7.4, 150 mM NaCl, 5 mM MgCl2, 1 mM TCEP, 0.05% tween 20, 5% DMSO buffer. KRAS-Q25A at 20 μM was mixed with 8 concentrations of compound (50 nM-100 μM) and injected over the full-length PI3Kα at 30 μL/min and 25° C. Steady-state levels of KRAS binding were recorded and fit with a 4-parameter inhibition model to determine the IC50 values.
(Surface plasmon resonance follows binding to a sensor surface in real time, without labels.)

For assay [3], the system named is pAKT in Tet-on KRAS G12D HeLa cells. The assay is described as follows: Cell-based pAKT HTRF assay in Tet-on KRAS G12D HeLa cells. The settings on record: read-out: pAKT inhibition IC50 in Tet-on KRAS G12D HeLa cells. As to the method: To determine the effectiveness of compounds in disrupting PIK3CA/KRAS signaling in cells, we implemented pAKT HTRF assay (Perkin-Elmer) in Tet-on KRAS G12D HeLa cells.
On Day 1, cells were seeded into 96-well plates at 2×10^4 cells/well in complete growth media (DMEM, 10% Tet-Screened FBS) supplemented with 200 ng/mL doxycycline.
On Day 2, cells were treated with compounds at 0.25% DMSO. The source plate was created with compounds diluted in media at 5-fold the final assay concentration. The compounds are run in a 9-point concentration curve starting at 75 μM, with a 3-fold dilution between concentrations. […] 20 μL was transferred onto the cell plates (final volume in wells was 100 μL). Plates were harvested after 30 min and 4 hr incubation by aspirating media and adding kit-supplied 1× supplemented lysis buffer to all wells (50 μL per well). This then changed to 4 hr only when compounds became covalent. Plates were then placed on a plate shaker and incubated at 850 rpm for an additional 30 min. The antibody mixture solution was prepared by diluting aliquoted d2 and Eu Cryptate antibodies 1:20 in kit supplied detection buffer, then mixed the diluted antibodies solutions (1:1 v:v). 4 μL of this solution was then added to a 384-well detection plate (Perkin Elmer; 6008230). Samples were homogenized by pipetting up and down and then transferred (16 μL of cell lysates) from the 96-well cell culture plate to two wells of the HTRF 384-well detection plate containing the antibody solution. Plates were centrifuged (524 g for 1 min) and allowed to incubate between 4 and 24 h at room temperature. The maximum signal is reached after 4 h incubation time and remains stable over a period of 24 hours. Therefore, readings can be made between 4 and 24 h of incubation. Plates were centrifuged again (524 g for 1 min), and analyzed on the EnVision plate reader using the following settings: Excitation 320 nm, Bandwidth […]; Emission 615 nm, Bandwidth […], Gain 100%, Flashes 100, Lag 60 μs.
On the technique in general: Time-resolved FRET reads energy transfer from a long-lived donor to a nearby acceptor.

Another assay relates to pAKT in BT474 cells. In words: Cell-based pAKT HTRF assay in BT474 cells. The settings on record: BT474 cells; 4 hr incubation; Compounds 10-999; read-out: pAKT inhibition IC50 in BT474 cells. An outline of the steps:
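Compound titration: 3 μM downward in 3-fold steps, nine points, 4 hr on cells. Detection: lysis, then d2 plus Eu Cryptate antibody mix, room-temperature incubation of 4–24 h, and time-resolved fluorescence read at 615 nm.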

In general, IC50 refers to the concentration that inhibits the measured activity by half.

KRAS-PI3Kα interaction (KRAS-Q25A binding to avi-tagged full length PI3Kα), sequence (P42336 whole entry, looked up, stated change not applied): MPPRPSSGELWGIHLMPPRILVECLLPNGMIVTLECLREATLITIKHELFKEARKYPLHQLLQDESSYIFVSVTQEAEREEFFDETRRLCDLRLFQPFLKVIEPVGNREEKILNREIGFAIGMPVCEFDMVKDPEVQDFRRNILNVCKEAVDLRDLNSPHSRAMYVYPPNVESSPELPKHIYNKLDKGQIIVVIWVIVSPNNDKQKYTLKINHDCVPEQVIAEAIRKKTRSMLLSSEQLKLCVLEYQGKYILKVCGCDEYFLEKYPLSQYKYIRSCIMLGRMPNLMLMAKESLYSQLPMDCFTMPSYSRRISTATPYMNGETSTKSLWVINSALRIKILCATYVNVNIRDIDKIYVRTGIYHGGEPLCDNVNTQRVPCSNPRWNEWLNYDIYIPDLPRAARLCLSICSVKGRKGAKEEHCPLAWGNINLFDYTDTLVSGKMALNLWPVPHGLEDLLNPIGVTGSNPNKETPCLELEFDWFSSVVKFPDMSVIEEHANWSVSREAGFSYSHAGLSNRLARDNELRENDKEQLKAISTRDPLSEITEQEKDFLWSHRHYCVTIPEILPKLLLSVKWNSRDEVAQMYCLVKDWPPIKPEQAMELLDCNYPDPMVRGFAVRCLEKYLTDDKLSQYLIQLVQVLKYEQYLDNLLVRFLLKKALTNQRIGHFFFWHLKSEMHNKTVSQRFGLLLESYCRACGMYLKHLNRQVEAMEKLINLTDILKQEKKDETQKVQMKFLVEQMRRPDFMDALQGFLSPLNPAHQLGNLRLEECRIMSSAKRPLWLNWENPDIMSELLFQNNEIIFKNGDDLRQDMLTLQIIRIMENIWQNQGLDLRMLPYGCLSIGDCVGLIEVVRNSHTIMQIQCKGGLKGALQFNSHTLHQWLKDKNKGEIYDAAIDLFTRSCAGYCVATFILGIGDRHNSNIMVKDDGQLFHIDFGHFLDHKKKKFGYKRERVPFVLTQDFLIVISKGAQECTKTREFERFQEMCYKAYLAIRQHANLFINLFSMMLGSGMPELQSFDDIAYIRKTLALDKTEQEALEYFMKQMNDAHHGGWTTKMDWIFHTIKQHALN
KRAS-PI3Kα interaction (KRAS-Q25A binding to avi-tagged full length PI3Kα), sequence (P27986 whole entry partner, looked up): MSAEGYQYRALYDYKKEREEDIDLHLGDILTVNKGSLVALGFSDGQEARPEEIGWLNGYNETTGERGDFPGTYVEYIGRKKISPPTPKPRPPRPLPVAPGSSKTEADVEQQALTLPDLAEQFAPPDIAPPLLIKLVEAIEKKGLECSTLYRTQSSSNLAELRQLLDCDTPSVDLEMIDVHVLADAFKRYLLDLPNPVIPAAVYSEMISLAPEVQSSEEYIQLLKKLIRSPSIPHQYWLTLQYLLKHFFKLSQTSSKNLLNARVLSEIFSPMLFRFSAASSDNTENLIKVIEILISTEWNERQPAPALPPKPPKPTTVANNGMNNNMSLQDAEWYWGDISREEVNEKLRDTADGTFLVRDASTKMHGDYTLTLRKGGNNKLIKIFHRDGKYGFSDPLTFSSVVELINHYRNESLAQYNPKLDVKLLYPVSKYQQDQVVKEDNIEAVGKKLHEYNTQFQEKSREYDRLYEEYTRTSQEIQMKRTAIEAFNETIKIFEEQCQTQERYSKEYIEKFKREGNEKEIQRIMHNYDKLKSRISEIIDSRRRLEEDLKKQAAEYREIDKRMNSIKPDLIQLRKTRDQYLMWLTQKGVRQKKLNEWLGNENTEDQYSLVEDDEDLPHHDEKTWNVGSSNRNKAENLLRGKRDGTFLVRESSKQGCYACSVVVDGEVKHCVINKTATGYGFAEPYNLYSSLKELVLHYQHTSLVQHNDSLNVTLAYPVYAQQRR
Cys242 in human PIK3CA (157-299), sequence (P42336 157-299): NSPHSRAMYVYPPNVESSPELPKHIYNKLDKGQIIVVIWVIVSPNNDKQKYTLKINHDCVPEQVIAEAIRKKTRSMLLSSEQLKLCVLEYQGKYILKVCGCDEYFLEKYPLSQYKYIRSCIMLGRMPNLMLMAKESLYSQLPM

Take `C=CC(=O)NCc1cccc(-c2nc(-c3ccc4c(c3)CCNC4)c3ccsc3c2-c2ccc(F)cc2OCCOC)c1` [Compound 11, N-[[3-[7-[4-fluoro-2-(2-methoxyethoxy)phenyl]-4-(1,2,3,4-tetrahydroisoquinolin-6-yl)thieno[3,2-c]pyridin-6-yl]phenyl]methyl]prop-2-enamide]: the “% of modification” value in assay [1] was “C (25%≤percent of modification <50%)”. Moreover, the IC50 in assay [2] was < 5 µM; in assay [3] (Homo sapiens, HeLa), 1 to 10 µM.

On to `COCCOc1cc(F)ccc1-c1c(-c2cccc(C#N)c2)nc(-c2ccc3c(c2)CCNC3)c2ccsc12` [Compound 8], for which the IC50 in assay [2] was > 25 µM; in assay [3] (Tet-on KRAS G12D HeLa cells) it was > 10 µM.

For the compound `COCCOc1cc(F)ccc1-c1c(-c2cccc(CNC(=O)C(C)(C)C)c2)nc(-c2ccc3c(c2)CCNC3)c2ccsc12` [compound 18], the values for the 50% inhibitory concentration (IC50) in assay [2] and in assay [3] (Tet-on KRAS G12D HeLa cells) were < 5 µM and 1 to 10 µM, respectively.

For `COCCOc1cc(F)ccc1-c1c(-c2cccc(CNC(=O)CC(C)(C)C)c2)nc(-c2ccc3c(c2)CCNC3)c2ccsc12` [compound 19], the half-maximal inhibitory concentration (IC50) in assay [2] was < 5 µM; in assay [3] (Tet-on KRAS G12D HeLa cells) it was > 10 µM.

On to `C=CC(=O)N1CC(Cn2cc(-c3nc(-c4ccc5c(c4)CCNC5)c4ccsc4c3-c3ccc(F)cc3OCCOC)cn2)C1` [compound 48], for which the values for the IC50 in assay [2] and in assay [3] (Tet-on KRAS G12D HeLa cells) were 5 to 25 µM and < 1 µM, respectively.

On to `COCCOc1cc(F)ccc1-c1c(-c2cccc(CNC(=O)C(C)C)c2)nc(-c2ccc3c(c2)CCNC3)c2ccsc12` [compound 14], for which the results for the IC50 in assay [2] and in assay [3] (Tet-on KRAS G12D HeLa cells) were 5 to 25 µM and > 10 µM, respectively.

As to `C=CC(=O)N1CCC(n2cc(-c3nc(-c4ccc5c(c4)CCNC5)c4ccsc4c3-c3ccc(F)cc3OCCOC)cn2)CC1` [compound 30], the “% of modification” value in assay [1] was “A (percent of modification of PIK3CA protein ≥75%)”. Besides, the 50% inhibitory concentration (IC50) is 5 to 25 µM in assay [2] and < 1 µM in assay [3] (Tet-on KRAS G12D HeLa cells).

Regarding `CCC(=O)Nc1cccc(-c2nc(-c3ccc4c(c3)CCNC4)c3ccsc3c2-c2ccc(F)cc2OCCOC)c1` [compound 29], the half-maximal inhibitory concentration (IC50) in assay [2] is < 5 µM; in assay [3] (Tet-on KRAS G12D HeLa cells) it was 1 to 10 µM.

`COCCOc1cc(F)ccc1-c1c(-c2cnn(CCC(=O)NC(C)(C)C)c2)nc(-c2ccc3c(c2)CCNC3)c2ccsc12` [compound 41]: the results for the IC50 in assay [2] and in assay [3] (Tet-on KRAS G12D HeLa cells) were 5 to 25 µM and 1 to 10 µM, respectively.

With `C=CC(=O)NCCc1cccc(-c2nc(-c3ccc4c(c3)CCNC4)c3ccsc3c2-c2ccc(F)cc2OCCOC)c1` [compound 40], the “% of modification” value in assay [1] is listed as “A (percent of modification of PIK3CA protein ≥75%)”. Besides, the values for the IC50 in assay [2] and in assay [3] (Tet-on KRAS G12D HeLa cells) were < 5 µM and 1 to 10 µM, respectively.

Consider `COCCOc1cc(F)ccc1-c1c(-c2cccc(NC(=O)C(C)C)c2)nc(-c2ccc3c(c2)CCNC3)c2ccsc12` [compound 33], for which the results for the IC50 in assay [2] and in assay [3] (Tet-on KRAS G12D HeLa cells) were < 5 µM and 1 to 10 µM, respectively.

With `C=CC(=O)N1CCC(n2cc(-c3nc(-c4ccc5c(c4)CCN(C)C5)c4ccsc4c3-c3ccc(F)cc3OCCOC)cn2)C1` (stereo not drawn) [compound 43], in assay [1], the “% of modification” value was “A (percent of modification of PIK3CA protein ≥75%)”. Moreover, the IC50 in assay [2] is 5 to 25 µM; in assay [3] (Tet-on KRAS G12D HeLa cells) it was < 1 µM.

Regarding `COCCOc1cc(F)ccc1-c1c(-c2cccc(C(=O)NC(C)C)c2)nc(-c2ccc3c(c2)CCNC3)c2ccsc12` [compound 17], the results for the half-maximal inhibitory concentration (IC50) in assay [2] and in assay [3] (Tet-on KRAS G12D HeLa cells) were 5 to 25 µM and 1 to 10 µM, respectively.

Turning to `COCCOc1cc(F)ccc1-c1c(-c2cnn(CC(C)(C)C)c2)nc(-c2ccc3c(c2)CCNC3)c2ccsc12` [compound 13], the half-maximal inhibitory concentration (IC50) in assay [2] lay in the range of 5 to 25 µM; in assay [3] (Tet-on KRAS G12D HeLa cells) it was 1 to 10 µM.

Regarding `C=CC(=O)N1CC[C@@H](n2cc(-c3nc(-c4ccc5c(c4)CCNC5)c4ccsc4c3-c3ccc(F)cc3OCCOC)cn2)C1` [compound 46], in assay [1], the “% of modification” value was “A (percent of modification of PIK3CA protein ≥75%)”. For the same compound, the results for the half-maximal inhibitory concentration (IC50) in assay [2] and in assay [3] (Tet-on KRAS G12D HeLa cells) were 5 to 25 µM and < 1 µM, respectively.

With `C=CC(=O)Nc1cccc(-c2nc(-c3ccc4c(c3)CCC(N(C)C)C4)c3ccsc3c2-c2ccc(F)cc2OCCOC)c1` (stereo not drawn) [compound 36], the “% of modification” value in assay [1] is listed as “A (percent of modification of PIK3CA protein ≥75%)”. For the same compound, the 50% inhibitory concentration (IC50) in assay [2] was < 5 µM; in assay [3] (Tet-on KRAS G12D HeLa cells), 1 to 10 µM.

For `Fc1ccc(-c2c(-c3ccccc3)nc(-c3ccc4c(c3)CCNC4)c3ccsc23)c(OCc2ncccc2F)c1` [compound 7], the IC50 in assay [2] lay in the range of 5 to 25 µM; in assay [3] (Tet-on KRAS G12D HeLa cells) it was 1 to 10 µM.

For `CCC(=O)NCc1cccc(-c2nc(-c3ccc4c(c3)CCNC4)c3ccsc3c2-c2ccc(F)cc2OCCOC)c1` [compound 9], the IC50 in assay [2] was 5 to 25 µM; in assay [3] (Tet-on KRAS G12D HeLa cells) it was 1 to 10 µM.

Take `COCCOc1cc(F)ccc1-c1c(-c2cccc(CNC(=O)C(C)C)c2)nc(-c2ccc3c(c2)CCNC3)c2ccsc12` [compound 10]: the 50% inhibitory concentration (IC50) in the assay with pAKT in BT474 cells is 1 to 3 µM; in assay [2] it was < 5 µM; in assay [3] (Tet-on KRAS G12D HeLa cells) it was 1 to 10 µM.

As to `C=CC(=O)Nc1cccc(-c2nc(-c3ccc4c(c3)CCN(C)C4)c3ccsc3c2-c2ccc(F)cc2OCCOC)c1` [compound 32], in assay [1], the “% of modification” value is recorded as “A (percent of modification of PIK3CA protein ≥75%)”. The figures for the 50% inhibitory concentration (IC50) in assay [2] and in assay [3] (Tet-on KRAS G12D HeLa cells) were 5 to 25 µM and < 1 µM, respectively.

Take `COCCOc1cc(F)ccc1-c1c(-c2cccc(CN)c2)nc(-c2ccc3c(c2)CCNC3)c2ccsc12` [compound 16]: the IC50 is 5 to 25 µM in assay [2] and 1 to 10 µM in assay [3] (Tet-on KRAS G12D HeLa cells).

For the compound `COCCOc1ccccc1-c1c(-c2cccc(Cl)c2)nc(-c2ccc3c(c2)CCNC3)c2ccsc12` [compound 6], the half-inhibitory concentration (IC50) in assay [2] was in the range of 5 to 25 µM; in assay [3] (Tet-on KRAS G12D HeLa cells), 1 to 10 µM.

`C=CC(=O)NCc1cccc(-c2nc(-c3ccc4c(c3)CCNC4)c3c(c2-c2ccccc2OCCOC)CCC3)c1` [Compound 1, N-(3-(4-(2-(2-methoxvethoxy)phenyl)-1-(1,2,3,4-tetrahydroisoquinolin-6-yl)-6,7-dihydro-5H-cyclopenta[c]pyridin-3-yl)benzyl)acrylamide]: in assay [1], the “% of modification” value was “D (percent of modification <25%)”. Also, the results for the IC50 in assay [2] and in assay [3] (Tet-on KRAS G12D HeLa cells) were 5 to 25 µM and 1 to 10 µM, respectively.

`COCCOc1cc(F)ccc1-c1c(-c2cccc(C(=O)N3CCCC3)c2)nc(-c2ccc3c(c2)CCNC3)c2ccsc12` [compound 15]: the half-inhibitory concentration (IC50) in assay [2] is < 5 µM; in assay [3] (Tet-on KRAS G12D HeLa cells) it was 1 to 10 µM.
